Assay results published in US7846735B2, “Compositions and methods for lipoprotein uptake assays” (General Electric Company, priority 2006, dated 2010).

What was measured:
[1] = target: T1, scavenger receptor A (SR-A, CD204) (Mus musculus, UniProt P30204); assay: Inhibition of CypHer5E-AcLDL uptake by known SR-A ligands; format: cell-based; conditions: RAW264.7 mouse macrophages, FIG. 7
T1 construct: endogenous in cells; host or cells: RAW264.7 mouse macrophages
T1 sequence (P30204 1-458): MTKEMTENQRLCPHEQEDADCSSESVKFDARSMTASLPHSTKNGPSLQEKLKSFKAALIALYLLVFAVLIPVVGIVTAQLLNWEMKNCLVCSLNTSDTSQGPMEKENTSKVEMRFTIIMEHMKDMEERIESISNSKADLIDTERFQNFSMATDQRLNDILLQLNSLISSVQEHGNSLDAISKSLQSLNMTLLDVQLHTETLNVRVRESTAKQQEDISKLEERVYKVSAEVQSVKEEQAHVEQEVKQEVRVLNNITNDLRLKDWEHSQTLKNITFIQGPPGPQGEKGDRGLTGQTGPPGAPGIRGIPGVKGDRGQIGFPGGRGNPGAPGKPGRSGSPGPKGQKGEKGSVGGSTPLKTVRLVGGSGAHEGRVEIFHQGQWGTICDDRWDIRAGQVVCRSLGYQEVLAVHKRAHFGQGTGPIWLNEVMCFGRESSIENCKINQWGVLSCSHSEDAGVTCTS
Procedure: RAW264.7 Mouse Macrophages, J774A.1 Mouse Macrophages, U-2 OS Human Osteosarcoma Cells were seeded in standard cell culture flasks and cultured in Dulbecco's Modified Eagle Medium (DMEM) with 10% fetal bovine serum (FBS) until about 70% to about 80% confluent. On the day of the assay, the cells were washed twice with serum-free DMEM, and incubated for 30 minutes in cell culture incubator in DMEM containing 1 μM Cell Tracker Green dye. After staining with Cell Tracker Green dye, cells were washed three times with serum-free DMEM, scraped from tissue culture flask, and resuspended in DMEM with 12.5% Fetal Bovine Lipoprotein Deficient Serum (FBLDS) at 250,000 cells/ml.
80 μl of Cell Tracker Green-labeled cells at 250,000 cells/ml were added to each well of ViewPlate 96-well plate in DMEM with 12.5% Fetal Bovine Lipoprotein Deficient Serum (FBLDS). For inhibitor studies, 10 μl of 10-fold stock of the inhibitor in DMEM containing 10% dimethyl sulfoxide (DMSO) were added to each well. 10 μl of DMEM containing 10% DMSO were added for control wells. Cells were pre-incubated for 30 minutes at 37° C. in a cell culture incubator in the presence of the inhibitor before addition of labeled AcLDL. At the end of pre-incubation period, 10 μl of 100 μg/ml CypHer5E-AcLdL solution were added to each well. The incubation continued for another 2 to 18 hours at 37° C. in cell culture incubator before imaging. The Dil AcLDL complex assay was identical to CypHer5E-AcLDL assay except that Dil AcLDL complex was added to cells in place of CypHer5E-AcLDL conjugate.
Following incubation, images of CypHer5E-AcLDL uptake were acquired on IN Cell Analyzer 1000 or 3000 (GE Healthcare) using a 10× or 20× objective and FITC/Cy5 excitation/emission filters. Analysis was performed using Granularity Analysis and Object Intensity Analysis Modules within IN Cell Analyzer system software suite or using Developer™ Image Analysis software.

[2] = pH dependence of dye fluorescence; format: physicochemical
From the text: The assays employ a pH-sensing cyanine dye, which is minimally fluorescent at neutral pH outside the cell, but highly fluorescent in the acidic environment (pKa ˜7.3; excitation peak 650 nm/emission peak 670 nm). In most instances, the lipoproteins or modified lipoproteins are taken up by cell-surface receptors through the process of receptor-mediated endocytosis. Once internalized, lipoproteins are transported to highly acidic vesicles. When labeled with CypHer5E dye, lipoproteins are minimally fluorescent at neutral pH outside the cell, but highly fluorescent in the acidic environment of the uptake vesicle. This translates into high signal-to-noise ratio compared to traditional dyes that are equally fluorescent inside or outside the cell. Additionally, the disclosed methods eliminate washing steps required for removal of excess of labeled lipoprotein in the media at the end of the protocol. […]
CypHer5E dye is 3 to 20 times more fluorescent in the acidic environment of the intracellular vesicles than at neutral pH outside the cell (pKa ˜7.3; excitation peak 650 nm/emission peak 670 nm). CypHer5E dye fluorescence is enhanced by the acidic conditions of lipoprotein-containing intracellular vesicles after receptor-mediated lipoprotein after the CypHer5E-AcLDL is internalized.

Row | Compound | inhibition of pH-sensing cyanine dye conjugate uptake (in words) [1] | pKa [2]
1 | Polyguanylic acid potassium salt [poly G] | inhibition | 
2 | CC1(C)C(/C=C/C=C/C=C2/Nc3ccc(S(=O)(=O)O)cc3C2(C)CCCCCC(=O)O)=[N+](CCCCS(=O)(=O)[O-])c2ccc(S(=O)(=O)O)cc21 (stereo not shown) [CypHer5E, 2-{[1E,3E,5E)-5-(3-methyl-3-(5-carboxypentyl)-5-sulfo-1,3-dihydro-2H-indol-2-ylidene]-1,3-pentadienyl}-3,3-dimethyl-5-sulfo-1-(4-sulfobutyl)-3H-indolium] |  | ~7.3
3 | Dextran Sulfate MW 500,000 [Dex SO4] | inhibition | 
4 | Polyinosinic acid potassium salt [poly I] | inhibition | 
